This is an account of results in publication PMC9401007, “Advances towards Cell‐Specific Gene Transfection: A Small‐Molecule Approach Allows Order‐of‐Magnitude Selectivity” (Chemistry (Weinheim an Der Bergstrasse, Germany), 2022).

The test system of data set [1] is HeLa cells. The data set can be described thus: Transfection of pH2B-mCherry plasmid, microscopy with CellProfiler readout. The class given is cell-based. The method, then: (§1) The development of vector 1 is illustrated in Table 1. In order to assess structure–activity relationships (SAR), we analyzed the minimal concentration needed to achieve transfection in steps of 100 μM, the toxicological profile and the transfection efficiency. To get swift access to toxicity data for SAR analysis, the compounds listed in Table 1 were evaluated in an MTS‐based cell‐viability assay, and transfection efficiencies were analyzed by CellProfiler® on HeLa cells (see the Supporting Information for details).[18] […] Amide formation on the N terminus reduced the net charge by 1, and acetylation at this position led to an increased concentration needed for successful transfection (Table 1, Entry B). Finally, the descent in transfection efficiency to 5.9 % highlights the relevance of a fifth positive charge.[19] Apparently, this reduction of positive charges impedes DNA condensation and must be compensated for.
4.2 Transfection and Microscopy
Cells were seeded in a 96-well plate from (Greiner bio-one) 24 h prior to experiments at a confluence of 1x104 in 100 µL of culture growth medium and grown at 37.0 °C, 5% CO2 atmosphere and 95% relative humidity. The vector was dissolved in DMSO. 0.100 µg of DNA were diluted with DB-PBS and an appropriate amount of vector solution added resulting in a total volume of 30 µL. This solution was incubated for 20 min at rt. Afterwards 30.0 µL of culture growth medium was replaced by vector/DNA mixture. All precipitate which had formed during the incubation process was added to the well. After 5 h of incubation the cells were washed with warm DB-PBS buffer (2x100 µL per well) before incubating the cells for 24h at 37.0 °C, 5% CO2 atmosphere and 95% relative humidity. After 24 h the cells were examined under the microscope.
Figure S4. Representative microscopy images of HEK293t, HeLa, CHO, A549 and HCT116 cells 24 h after transfection with 1 (150 µM) with pH2B-mCherry.
Scale bar represents 200 µm. […]
4.3 Quantification of Transfection Results
For quantification of transfection efficiencies, cells were transfected with the pH2B-mCherry plasmid using the different compounds at the described concentrations and stained with DAPI. […] The transfection efficiency was calculated using CellProfiler™.[7] […] Next, the fluorescence intensity in the red channel (Ex = 555 nm; Em > 590 nm) was measured within the segmented nuclei and a threshold was applied.
The ratio between pH2B-mCherry positive nuclei and all nuclei (segmented by DAPI) was determined as transfection efficiency. […]
Figure S7. […] The pipeline recognizes Hoechst-stained nuclei and measures the intensity of the fluorescent reporter protein within the previously calculated nuclei boundaries. […]

The subject of data set [2] is HeLa cells. The data set can be described thus: MTS-based cell-viability assay (CellTiter 96 AQueous One Solution Cell Proliferation Assay). Conditions: 5 h incubation with plasmid DNA 1 µg/ml. The procedure:
as §1
4. Biological experiments
Determination of the toxicity of the compounds was performed using the colorimetric CellTiter 96® AQueous One Solution Cell Proliferation Assay (Promega). […] Absorbance at 490 nm was measured using a GloMax-multi plate reader (Promega). […]

Take tetralysine-guanidinocarbonylpyrrol: the “Conc.: minimal concentration needed to observe successful transfection during microscopy” value in the data set with HeLa cells [1] (analysed in steps of 100 μM, pH2B-mCherry plasmid, 5 h incubation, examined after 24 h) is 150 µM. Besides, the “Efficiency: transfection efficiency by CellProfiler readout” value in the data set with HeLa cells [1] (at the (minimal) concentration printed in column Conc., fraction of pH2B-mCherry positive nuclei) worked out at 3.2%. In addition, in the data set on HeLa cells [1] (at the concentration marked (opt.): A 300 μM, 1 150 μM), the “Efficiency: transfection efficiency by CellProfiler readout at the optimal concentration” value stood at 48%. Also, the “Conc. (opt.): concentration of maximum transfection efficiency” value with HeLa cells [1] (pH2B-mCherry plasmid) was 300 µM. Further, in the data set with HeLa cells [2] (concentration range optimal for transfection (for entry A: at the minimal concentration 150 μM), absorbance 490 nm, normalised to DMSO control), the “Toxicity (qualitative, MTS assay)” value is “low (Low=cell viability ≥70 %)”. The “Toxicity (qualitative, MTS assay) at the optimal concentration” value in the data set on HeLa cells [2] (entry A at 300 μM (opt.)) is “high (high=cell viability <70 %)”.
